Experimental data reported in publication PMC4306137, “The First Small-Molecule Inhibitors of Members of the Ribonuclease E Family” (Scientific Reports, 2015).
Several values for one entry are separate records, joined by “and”; a condition that tells them apart may be missing. Equal values may be shown once. Entries after “also recorded” stand apart in the source; their conditions may differ.

Molecular target: T1, E. coli NTH-RNase E (Escherichia coli, UniProt P21513)
Experiment: SPR binding to immobilized E. coli NTH-RNase E
Details: E. coli NTH-RNase E; plateau at higher concentrations = specific
Protocol: (§1) E. coli and M. tuberculosis RNase E were immobilized covalently using amine coupling to the surface of a Biacore CM5 sensor chip (GE Healthcare). Immobilization levels were approximately 1500 RUs. Assessment of compound binding were conducted by injecting varying compound concentrations in PBS containing 5% DMSO at flow rates of 30–90 μl/min for ~60 s over the reference and test flow cells. A Biacore T100 instrument was used and the data collected was reference and buffer subtracted prior to steady state analysis using data fitting functions provided in the Biacore T100 Evaluation Software.

T1 sequence (P21513 1-529): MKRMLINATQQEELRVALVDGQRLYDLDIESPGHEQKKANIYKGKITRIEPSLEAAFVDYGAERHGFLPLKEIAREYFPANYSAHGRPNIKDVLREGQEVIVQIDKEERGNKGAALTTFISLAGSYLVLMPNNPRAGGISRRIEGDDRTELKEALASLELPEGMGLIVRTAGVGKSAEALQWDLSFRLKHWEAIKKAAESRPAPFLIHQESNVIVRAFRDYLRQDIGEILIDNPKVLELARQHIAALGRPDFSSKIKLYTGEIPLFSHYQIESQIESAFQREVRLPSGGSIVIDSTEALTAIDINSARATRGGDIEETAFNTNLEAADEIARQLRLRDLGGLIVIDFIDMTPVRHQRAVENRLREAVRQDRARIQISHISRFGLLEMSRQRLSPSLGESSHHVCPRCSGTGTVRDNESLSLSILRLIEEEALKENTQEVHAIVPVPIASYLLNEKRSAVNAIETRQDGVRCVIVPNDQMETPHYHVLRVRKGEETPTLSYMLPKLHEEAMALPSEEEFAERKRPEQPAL

SMILES	SPR binding curve behaviour (specific or non-specific binding)
O=C1c2ccccc2NC(c2cc(Cl)cc(Cl)c2O)N1Cc1cccnc1 (centres unmarked) [M2]	bind but at sites other than the intended target
Cc1onc(-c2c(Cl)cccc2Cl)c1C(=O)N=S(C)(C)=O [M3]	consistent with targeting of specific sites
CCOC(=O)NC(=O)c1cn(Nc2ncc(Cl)cc2C(F)(F)F)c(=O)[nH]c1=O [M5]	consistent with targeting of specific sites; also recorded: specific binding
Cc1ccc(S(=O)(=O)NC(=O)N2CCCN(c3ncnc4scc(-c5ccccc5)c34)CC2)cc1 [P10]	bind at sites other than the intended target; also recorded: non-specific binding
Cc1nnsc1-c1onc(C)c1C(=O)O/N=C/c1cccc(Cl)c1 [M9]	consistent with targeting of specific sites
Cc1ccc(C)n1-c1nn(S(=O)(=O)c2cccc3nonc23)c2cccc(F)c12 [P6]	consistent with targeting of specific sites
Cc1c(C(=O)NNc2cc(C(F)(F)F)ccc2Cl)n(C)oc1=O [M8]	consistent with targeting of specific sites
Cc1ccc(S(=O)(=O)NC(=O)NCCSCc2c(C)cc(C)cc2C)cc1 [P11]	consistent with targeting of specific sites; also recorded: specific binding

Same assay, conditions: apparent KD from SPR steady state fit; binding to E. coli RNase E; PBS with 5% DMSO

SMILES	Steady State KD value
O=C1c2ccccc2NC(c2cc(Cl)cc(Cl)c2O)N1Cc1cccnc1 (centres unmarked) [M2]	non-specific
Cc1ccc(S(=O)(=O)NC(=O)N2CCCN(c3ncnc4scc(-c5ccccc5)c34)CC2)cc1 [P10]	non-specific

Same assay, conditions: read-out: Steady State KD value

SMILES	Kd [mM]
Cc1onc(-c2c(Cl)cccc2Cl)c1C(=O)N=S(C)(C)=O [M3]	~0.6
CCOC(=O)NC(=O)c1cn(Nc2ncc(Cl)cc2C(F)(F)F)c(=O)[nH]c1=O [M5]	~3
Cc1nnsc1-c1onc(C)c1C(=O)O/N=C/c1cccc(Cl)c1 [M9]	~2
Cc1c(C(=O)NNc2cc(C(F)(F)F)ccc2Cl)n(C)oc1=O [M8]	~3.5

Molecular target: T1, E. coli NTH-RNase E
Experiment: Discontinuous cleavage assay (pBR13-fl substrate), E. coli NTH-RNase E
Type: biochemical
Details: E. coli enzyme; pre-incubation 37°C 20 min; 20% DMSO; NI = no inhibition (up to 40 mM tested); read-out: Nominal IC50 RNase E

SMILES	IC50
O=C1c2ccccc2NC(c2cc(Cl)cc(Cl)c2O)N1Cc1cccnc1 (centres unmarked) [M2]	> 40 mM
Cc1onc(-c2c(Cl)cccc2Cl)c1C(=O)N=S(C)(C)=O [M3]	> 40 mM
CCOC(=O)NC(=O)c1cn(Nc2ncc(Cl)cc2C(F)(F)F)c(=O)[nH]c1=O [M5]	3.8 mM and ~3.8 mM
Cc1ccc(S(=O)(=O)NC(=O)N2CCCN(c3ncnc4scc(-c5ccccc5)c34)CC2)cc1 [P10]	1.9 mM and ~1.9 mM
Cc1nnsc1-c1onc(C)c1C(=O)O/N=C/c1cccc(Cl)c1 [M9]	~18 mM
Cc1c(C(=O)NNc2cc(C(F)(F)F)ccc2Cl)n(C)oc1=O [M8]	~3.2 mM

Same assay, conditions: compounds at their E. coli RNase E IC50 concentration: 1.9 mM P10, 1.8 mM P11, 3.8 mM M5; combinations at the same concentrations; read-out: Initial rate normalised to 1 for the reaction containing no compound

SMILES	activity at 3800 µM [%]	activity at 1900 µM [%]	activity at 1800 µM [%]
CCOC(=O)NC(=O)c1cn(Nc2ncc(Cl)cc2C(F)(F)F)c(=O)[nH]c1=O [M5]	42	–	–
Cc1ccc(S(=O)(=O)NC(=O)N2CCCN(c3ncnc4scc(-c5ccccc5)c34)CC2)cc1 [P10]	–	44	–
Cc1ccc(S(=O)(=O)NC(=O)NCCSCc2c(C)cc(C)cc2C)cc1 [P11]	–	–	62

Same assay, conditions: discontinuous cleavage assay, conditions used

SMILES	Inhibition of catalysis by E. coli RNase E (in words)
O=C1c2ccccc2NC(c2cc(Cl)cc(Cl)c2O)N1Cc1cccnc1 (centres unmarked) [M2]	did not inhibit RNase E
CCOC(=O)NC(=O)c1cn(Nc2ncc(Cl)cc2C(F)(F)F)c(=O)[nH]c1=O [M5]	clearly inhibited catalysis
Cc1ccc(S(=O)(=O)NC(=O)N2CCCN(c3ncnc4scc(-c5ccccc5)c34)CC2)cc1 [P10]	inhibited RNase E
Cc1nnsc1-c1onc(C)c1C(=O)O/N=C/c1cccc(Cl)c1 [M9]	inhibited catalysis but much less efficiently
Cc1ccc(C)n1-c1nn(S(=O)(=O)c2cccc3nonc23)c2cccc(F)c12 [P6]	clearly inhibited catalysis
Cc1c(C(=O)NNc2cc(C(F)(F)F)ccc2Cl)n(C)oc1=O [M8]	clearly inhibited catalysis
Cc1ccc(S(=O)(=O)NC(=O)NCCSCc2c(C)cc(C)cc2C)cc1 [P11]	clearly inhibited catalysis

Molecular target: T2, E. coli RNase G (Escherichia coli, UniProt P0A9J0)
T2 construct: made in house
T2 sequence (P0A9J0 whole entry): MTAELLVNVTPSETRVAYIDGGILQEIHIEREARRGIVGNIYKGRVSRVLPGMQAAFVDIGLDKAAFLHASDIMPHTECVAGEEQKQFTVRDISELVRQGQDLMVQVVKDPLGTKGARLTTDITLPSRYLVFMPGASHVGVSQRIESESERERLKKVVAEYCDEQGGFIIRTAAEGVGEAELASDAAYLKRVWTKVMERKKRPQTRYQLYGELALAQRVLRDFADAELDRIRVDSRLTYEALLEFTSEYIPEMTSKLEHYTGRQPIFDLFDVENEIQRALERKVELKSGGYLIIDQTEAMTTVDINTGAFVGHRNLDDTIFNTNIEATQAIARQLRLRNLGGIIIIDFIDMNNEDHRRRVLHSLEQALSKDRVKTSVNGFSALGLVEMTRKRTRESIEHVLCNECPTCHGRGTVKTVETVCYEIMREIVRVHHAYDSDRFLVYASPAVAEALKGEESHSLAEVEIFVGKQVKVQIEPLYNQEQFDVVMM
Experiment: Discontinuous cleavage assay, E. coli RNase G
Type: biochemical
Details: E. coli RNase G
Protocol: The compounds were obtained from Maybridge and re-suspended in 100% DMSO. Discontinuous cleavage assays were done using a 3′ fluorescein-labelled, 5′-monophosphorylated version of BR13, a well-characterised substrate of RNase E, with the sequence 5′-[…]↓AUUUG[44]. E. coli NTH-RNase E was pre-incubated with and without the compounds at 37°C for 20 min before the addition of substrate in a buffer containing 25 mM Bis-Tris Propane (pH 8.3), 100 mM NaCl, 15 mM MgCl2, 0.1% Triton X-100, 1 mM DTT and 20% DMSO. The enzyme monomer and substrate concentrations at the start of the reaction were 0.5 and 62 nM, respectively. The inhibition assays with RNase G and RNase A (Sigma) were carried out as above. Reaction products were analysed by electrophoresis using a denaturing 15% polyacrylamide, sequencing-type gel. Detection was via a FLA-5100 scanner (Fuji). Substrate and product were quantified using AIDA software (Raytest Isotopenmessgerate GmbH). Initial rates of reaction at increasing compound concentrations were obtained by establishing the slope representing percentage product generated over time during the initial, linear phase of the reaction. IC50 values were calculated by plotting the percentage inhibition of initial rate against compound concentration.

SMILES	Inhibition of the activity of RNase G (in words)
CCOC(=O)NC(=O)c1cn(Nc2ncc(Cl)cc2C(F)(F)F)c(=O)[nH]c1=O [M5]	able to inhibit the activity of RNase G
Cc1ccc(S(=O)(=O)NC(=O)N2CCCN(c3ncnc4scc(-c5ccccc5)c34)CC2)cc1 [P10]	able to inhibit the activity of RNase G
Cc1nnsc1-c1onc(C)c1C(=O)O/N=C/c1cccc(Cl)c1 [M9]	able to inhibit the activity of RNase G
Cc1ccc(C)n1-c1nn(S(=O)(=O)c2cccc3nonc23)c2cccc(F)c12 [P6]	able to inhibit the activity of RNase G
Cc1ccc(S(=O)(=O)NC(=O)NCCSCc2c(C)cc(C)cc2C)cc1 [P11]	able to inhibit the activity of RNase G

Same assay, conditions: E. coli enzyme; conditions as for RNase E; NI = no inhibition (up to 40 mM tested); read-out: Nominal IC50 RNase G

SMILES	IC50
O=C1c2ccccc2NC(c2cc(Cl)cc(Cl)c2O)N1Cc1cccnc1 (centres unmarked) [M2]	> 40 mM
Cc1onc(-c2c(Cl)cccc2Cl)c1C(=O)N=S(C)(C)=O [M3]	> 40 mM
CCOC(=O)NC(=O)c1cn(Nc2ncc(Cl)cc2C(F)(F)F)c(=O)[nH]c1=O [M5]	3.3 mM and ~3.3 mM
Cc1ccc(S(=O)(=O)NC(=O)N2CCCN(c3ncnc4scc(-c5ccccc5)c34)CC2)cc1 [P10]	2.4 mM and ~2.4 mM
Cc1nnsc1-c1onc(C)c1C(=O)O/N=C/c1cccc(Cl)c1 [M9]	~24 mM

Molecular target: T3, M. tuberculosis RNase E (Mycobacterium tuberculosis, UniProt P71905)
T3 sequence (P71905 whole entry): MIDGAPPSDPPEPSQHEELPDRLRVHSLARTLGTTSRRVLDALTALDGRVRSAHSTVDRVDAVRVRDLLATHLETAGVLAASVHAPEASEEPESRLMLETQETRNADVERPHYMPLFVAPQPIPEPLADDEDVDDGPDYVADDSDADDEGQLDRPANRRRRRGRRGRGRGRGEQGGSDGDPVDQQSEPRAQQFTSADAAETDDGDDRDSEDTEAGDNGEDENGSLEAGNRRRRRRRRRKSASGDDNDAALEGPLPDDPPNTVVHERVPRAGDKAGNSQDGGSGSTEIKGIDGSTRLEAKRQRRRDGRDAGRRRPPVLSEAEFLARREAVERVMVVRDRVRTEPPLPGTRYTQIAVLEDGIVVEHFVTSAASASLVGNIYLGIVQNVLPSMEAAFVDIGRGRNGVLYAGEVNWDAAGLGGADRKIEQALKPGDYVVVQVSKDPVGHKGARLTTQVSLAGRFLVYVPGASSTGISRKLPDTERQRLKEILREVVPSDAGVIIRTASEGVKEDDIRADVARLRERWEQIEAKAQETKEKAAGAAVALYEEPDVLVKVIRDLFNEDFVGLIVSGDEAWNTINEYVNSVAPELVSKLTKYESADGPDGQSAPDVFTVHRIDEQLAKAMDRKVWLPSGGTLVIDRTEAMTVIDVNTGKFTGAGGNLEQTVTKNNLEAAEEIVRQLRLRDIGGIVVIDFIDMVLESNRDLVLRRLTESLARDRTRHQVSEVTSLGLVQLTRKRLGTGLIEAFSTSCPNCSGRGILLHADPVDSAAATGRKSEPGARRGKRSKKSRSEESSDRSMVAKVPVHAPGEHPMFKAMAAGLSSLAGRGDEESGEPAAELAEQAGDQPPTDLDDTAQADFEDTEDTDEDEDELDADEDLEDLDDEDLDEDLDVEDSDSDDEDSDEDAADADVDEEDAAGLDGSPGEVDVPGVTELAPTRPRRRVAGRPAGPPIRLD
Experiment: Cleavage of pBR13-fl by M. tuberculosis RNase E
Type: biochemical
Details: 5 mM compound; room temperature; 5% DMSO
Protocol: For M. tuberculosis RNase E (a kind gift from Prof. B. Luisi, University of Cambridge), 1 μM 3′ fluorescently-labelled, 5′ monophosphorylated BR13 was incubated with 50 nM RNase E with and without the compounds in buffer containing 25 mM Tris-HCl (pH 7.5), 100 mM NaCl, 15 mM MgCl2, 1 mM DTT and 5% DMSO at room temperature. Reactions were analysed by electrophoresis using denaturing 20% polyacrylamide gels and visualised using a UV transilluminator.

SMILES	Inhibition of M. tuberculosis RNase E (in words)
CCOC(=O)NC(=O)c1cn(Nc2ncc(Cl)cc2C(F)(F)F)c(=O)[nH]c1=O [M5]	inhibits activity but appears to be less efficient
Cc1ccc(S(=O)(=O)NC(=O)NCCSCc2c(C)cc(C)cc2C)cc1 [P11]	clear inhibition

Molecular target: T3, M. tuberculosis RNase E
Experiment: SPR binding to immobilized M. tuberculosis RNase E
Details: data not shown
Protocol: as §1

SMILES	SPR binding curves, M. tuberculosis RNase E (in words)
CCOC(=O)NC(=O)c1cn(Nc2ncc(Cl)cc2C(F)(F)F)c(=O)[nH]c1=O [M5]	consistent with specific targeting
Cc1ccc(S(=O)(=O)NC(=O)NCCSCc2c(C)cc(C)cc2C)cc1 [P11]	consistent with specific targeting
